Values belong to the molecule of their own block, whether it stands above or below them. Bridge positions count the residues as written; N and C are the ends. Square brackets hold non-standard residues; d marks the D form. Peptide text beside a SMILES is read from it. I, II: the chains in the order shown. 2Nal = N[C@@H](Cc1ccc2ccccc2c1)C(=O)O; NF = 5(6)-carboxynaphthofluorescein; AEEA = NCCOCCOCC(=O)O; βAla = NCCC(=O)O
Legend:
[1] = Aqueous solubility (observation)
[2] = cited from earlier work
SJSA-1 cells = test: Annexin V/propidium iodide flow cytometry assay; format: cell-based; settings: 48-hour treatment, 10% FBS
Description: The percentage of Annexin V+/PI+ and Annexin V+/PI− SJSA-1 cells after 48-hour treatment of inhibitors in presence of 10% FBS was measured.
The mode of action (MOA) of CPP9-sPDI upon cytosolic delivery of the MDM2 inhibitor was also considered. […] This behavior is similar to Nutlin-3a, which is known to induce p53-dependent apoptosis in certain cancer cell lines. In this study, the percentage of Annexin V+/PI+ and Annexin V+/PI− SJSA-1 cells is determined after 48-hour treatment of inhibitors in presence of 10% FBS.

HeLa cells = test: Live-cell confocal microscopy of FITC-labeled peptides; format: cell-based; settings: 5 μM FITC-labeled peptide, 2 h, 37° C.
Description: HeLa cells were treated with 5 μM FITC-labeled peptide for 2 h at 37° C., washed to remove excess peptide, and subjected to live-cell confocal microscopy. I, DIC; II, GFP channel; and III, overlap of I and II.
Four pairs of the peptides from Table 6 were also labeled with FITC and their entry into HeLa cells were monitored by live-cell confocal microscopy (FIG. 4).
To assess delivery aptitude of each conjugate, peptides 22-25 were labeled with FITC and their entry into HeLa cells was monitored by live-cell confocal microscopy (FIG. 21). HeLa cells were treated with 5 μM FITC-labeled peptide for 2 h at 37° C. and washed to remove excess peptide.

[3] = Anti-proliferation MTT assay, SJSA-1; format: cell-based; settings: 72-hour treatment, 0-20 μM, 10% FBS, read-out: IC50 (cytotoxicity)
Description: IC50 values (μM) are provided for each test compound.
In addition, the anti-proliferative effects of CPP9-sPDI (structure 23) were evaluated. FIG. 23 compares the effects of CPP9-sPDI, Nutlin-3a, R9-sPDI, sPDI, CPP9-sPDI(F10A) and Tat-sPDI (0-20 μM) on the viability of SJSA-1 cell line after 72-hour treatment in the presence of 10% FBS as measured by MTT assay.

[4] = Serum stability in 25% human serum; format: in vitro ADME; settings: 37° C., read-out: compound detected at the end of the study
Description: FIG. 25 is a graph showing the stability of CPP9-sPDI (structure 23) in 25% human serum at 37° C.
The serum stability of CPP9-sPDI was evaluated by incubating the conjugate in 25% human serum at 37° C. over 24 hours. […] The observed level of serum stability (cargo region) may impact the IC50 values measured for this compound.

Molecule: NF-βA-TYRGAAQCAAQCVREV-NH2 ({NF-βAla}-TYRGAAQCAAQCVREV-NH2; bridge 8-12; not fully specified (bridges)) [Peptide 20]
aqueous solubility [1]: limited solubility

Molecule: 5(6)-carboxynaphthofluorescein [NF]
pKa [2]: 7.8

Molecule: CC(=O)N[C@@H](CC(C)C)C(=O)N[C@H](C(=O)N[C@@H](Cc1ccccc1)C(=O)N[C@H]1CC(=O)NCCCC[C@@H](C(=O)N[C@@H](CCC(N)=O)C(=O)N[C@@H](CC(C)C)C(=O)N[C@H](C(=O)N[C@@H](CO)C(=O)NCCOCCOCC(=O)N[C@@H](CCCCNC(=O)CC[C@@H]2NC(=O)[C@@H](CCCNC(=N)N)NC(=O)[C@H](CCCNC(=N)N)NC(=O)[C@@H](CCCNC(=N)N)NC(=O)[C@H](CCCNC(=N)N)NC(=O)[C@H](Cc3ccc4ccccc4c3)NC(=O)[C@@H](Cc3ccccc3)NC2=O)C(N)=O)[C@@H](C)O)NC(=O)[C@H](Cc2c[nH]c3ccccc23)NC(=O)[C@H](Cc2ccc(O)cc2)NC(=O)[C@H](Cc2c[nH]cn2)NC1=O)[C@@H](C)O [Peptide 23] (I: Ac-LTFDHYWKQLTS[AEEA]K-NH2 / II: cyclo([2Nal]R[dR]R[dR]E[dF]); lactam I:4-I:8; amide I:14-II:6)
mode of anti-proliferative action (Annexin V+/PI+ and Annexin V+/PI− cells) (SJSA-1 cells): mediated by apoptotic pathways

remaining at 24 h [4]: 25%
Molecule: CC(=O)N[C@@H](CC(C)C)C(=O)N[C@H](C(=O)N[C@@H](Cc1ccccc1)C(=O)N[C@H]1CC(=O)NCCCC[C@@H](C(=O)N[C@@H](CCC(N)=O)C(=O)N[C@@H](CC(C)C)C(=O)N[C@H](C(=O)N[C@@H](CO)C(=O)NCCOCCOCC(=O)N[C@@H](CCCCNC(=O)CC[C@@H]2NC(=O)[C@@H](CCCNC(=N)N)NC(=O)[C@H](CCCNC(=N)N)NC(=O)[C@@H](CCCNC(=N)N)NC(=O)[C@H](CCCNC(=N)N)NC(=O)[C@H](Cc3ccc4ccccc4c3)NC(=O)[C@@H](Cc3ccccc3)NC2=O)C(N)=O)[C@@H](C)O)NC(=O)[C@H](Cc2c[nH]c3ccccc23)NC(=O)[C@H](Cc2ccc(O)cc2)NC(=O)[C@H](Cc2cnc[nH]2)NC1=O)[C@@H](C)O [Peptide 23] (I: Ac-LTFDHYWKQLTS[AEEA]K-NH2 / II: cyclo([2Nal]R[dR]R[dR]E[dF]); lactam I:4-I:8; amide I:14-II:6)
cellular uptake by confocal microscopy (HeLa cells): most effective conjugate for delivering sPDI
IC50 [3]: 3.86 µM

— US12115224B2, “Polypeptide conjugates for intracellular delivery of stapled peptides” (Ohio State Innovation Foundation, priority 2017, dated 2024)
